# Laboratory results taken from patent publication US9012443B2 (Amgen Inc., priority 2011, dated 2015).
# Target: T1, Nav 1.7 (Homo sapiens (Human), UniProt Q15858)
# Assay: Nav 1.7 in vitro PX assay (PatchXpress whole cell voltage clamp)
# Format: cell-based
# Details: 293 cells, human Nav1.7, partially inactivated state; read-out: Nav1.7 PX IC50 IP
# In short: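 HEK293 cells stably expressing human Nav1.7, whole-cell voltage clamp on PatchXpress, held at potential giving 20–50% inactivation; current elicited by 20 msec pulse to −10 mV.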
# T1 sequence (Q15858 whole entry): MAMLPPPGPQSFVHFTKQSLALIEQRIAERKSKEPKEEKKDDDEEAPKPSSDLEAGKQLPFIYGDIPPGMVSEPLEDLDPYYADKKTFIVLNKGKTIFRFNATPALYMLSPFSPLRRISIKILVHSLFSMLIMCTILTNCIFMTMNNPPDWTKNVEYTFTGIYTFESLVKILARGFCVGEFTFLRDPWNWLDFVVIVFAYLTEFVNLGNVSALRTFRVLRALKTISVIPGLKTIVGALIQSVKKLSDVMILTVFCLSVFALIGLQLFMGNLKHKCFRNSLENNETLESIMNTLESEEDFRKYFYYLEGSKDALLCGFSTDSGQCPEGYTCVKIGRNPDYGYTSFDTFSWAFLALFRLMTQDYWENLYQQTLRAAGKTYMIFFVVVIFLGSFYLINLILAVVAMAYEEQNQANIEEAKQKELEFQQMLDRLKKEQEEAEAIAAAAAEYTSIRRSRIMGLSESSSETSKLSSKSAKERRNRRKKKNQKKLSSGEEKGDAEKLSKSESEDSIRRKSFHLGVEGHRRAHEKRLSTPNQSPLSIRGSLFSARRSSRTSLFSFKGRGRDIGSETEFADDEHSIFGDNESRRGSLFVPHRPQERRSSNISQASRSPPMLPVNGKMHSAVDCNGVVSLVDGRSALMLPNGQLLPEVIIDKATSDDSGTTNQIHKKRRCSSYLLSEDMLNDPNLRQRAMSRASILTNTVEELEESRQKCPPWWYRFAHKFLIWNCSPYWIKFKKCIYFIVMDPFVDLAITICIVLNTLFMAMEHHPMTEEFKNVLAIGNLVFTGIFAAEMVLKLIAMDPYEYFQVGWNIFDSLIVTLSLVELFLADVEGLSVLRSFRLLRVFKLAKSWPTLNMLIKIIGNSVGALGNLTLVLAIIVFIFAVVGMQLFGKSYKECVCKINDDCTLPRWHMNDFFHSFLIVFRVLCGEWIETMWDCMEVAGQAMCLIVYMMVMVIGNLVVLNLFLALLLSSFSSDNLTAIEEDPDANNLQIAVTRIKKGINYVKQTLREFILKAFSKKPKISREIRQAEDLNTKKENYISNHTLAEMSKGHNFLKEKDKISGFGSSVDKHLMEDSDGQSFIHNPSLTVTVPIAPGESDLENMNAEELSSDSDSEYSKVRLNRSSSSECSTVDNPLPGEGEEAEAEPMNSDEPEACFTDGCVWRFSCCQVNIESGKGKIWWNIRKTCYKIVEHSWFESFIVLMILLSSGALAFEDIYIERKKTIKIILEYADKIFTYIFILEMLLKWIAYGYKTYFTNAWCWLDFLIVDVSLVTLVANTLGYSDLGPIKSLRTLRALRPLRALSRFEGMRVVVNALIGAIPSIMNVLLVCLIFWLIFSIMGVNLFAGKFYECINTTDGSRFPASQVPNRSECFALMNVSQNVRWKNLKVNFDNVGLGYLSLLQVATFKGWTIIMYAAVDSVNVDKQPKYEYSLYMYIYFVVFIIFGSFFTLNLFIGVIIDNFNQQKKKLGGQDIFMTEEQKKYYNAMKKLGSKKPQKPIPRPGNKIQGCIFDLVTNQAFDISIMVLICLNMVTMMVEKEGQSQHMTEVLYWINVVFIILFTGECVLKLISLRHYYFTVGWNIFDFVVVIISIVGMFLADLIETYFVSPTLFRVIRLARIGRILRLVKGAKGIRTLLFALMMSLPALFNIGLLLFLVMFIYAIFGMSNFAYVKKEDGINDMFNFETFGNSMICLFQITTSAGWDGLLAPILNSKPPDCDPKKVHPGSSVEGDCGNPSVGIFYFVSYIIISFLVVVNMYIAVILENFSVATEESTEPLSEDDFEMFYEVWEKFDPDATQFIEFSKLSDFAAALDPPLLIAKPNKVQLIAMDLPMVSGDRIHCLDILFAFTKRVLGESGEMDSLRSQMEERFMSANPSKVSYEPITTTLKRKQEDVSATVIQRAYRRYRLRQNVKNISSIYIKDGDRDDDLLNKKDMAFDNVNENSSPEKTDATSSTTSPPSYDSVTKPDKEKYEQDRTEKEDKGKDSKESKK
row,IC50 [nM],SMILES
1,1300,"COc1ccccc1-c1n[nH]c(=O)c2cc(S(=O)(=O)Nc3ncns3)ccc12 [Example 508, 1-(2-METHOXYPHENYL)-4-OXO-N-(1,2,4-THIADIAZOL-5-YL)-3,4-DIHYDROPHTHALAZINE-6-SULFONAMIDE]"
2,1050,"COc1cc(C2(F)COC2)ccc1-c1nc(C)nc2cc(S(=O)(=O)Nc3nccs3)ccc12 [Example 516, 4-(4-(3-FLUOROOXETAN-3-YL)-2-METHOXYPHENYL)-2-METHYL-N-(THIAZOL-2-YL)QUINAZOLINE-7-SULFONAMIDE]"
3,1280,"COc1cc(C#N)ccc1-c1nc(C)nc2cc(S(=O)(=O)Nc3nccs3)ccc12 [Example 517, 4-(4-CYANO-2-METHOXYPHENYL)-2-METHYL-N-(THIAZOL-2-YL)QUINAZOLINE-7-SULFONAMIDE]"
4,2600,"COc1cc(C(F)(F)F)ccc1-c1nc(C)nc2cc(S(=O)(=O)Nc3ccncn3)ccc12 [Example 518, 4-(2-METHOXY-4-(TRIFLUOROMETHYL)PHENYL)-2-METHYL-N-(PYRIMIDIN-4-YL)QUINAZOLINE-7-SULFONAMIDE]"
5,29300,"COC[C@H]1CCCN1c1ncnc2cc(S(=O)(=O)Nc3nccs3)ccc12 [Example 534, (R)-4-(2-(METHOXYMETHYL)PYRROLIDIN-1-YL)-N-(THIAZOL-2-YL)QUINAZOLINE-7-SULFONAMIDE]"
6,1800,"COc1ncc(Cl)cc1-c1ncnc2cc(S(=O)(=O)Nc3nccs3)ccc12 [Example 541, 4-(5-CHLORO-2-METHOXYPYRIDIN-3-YL)-N-(THIAZOL-2-YL)QUINAZOLINE-7-SULFONAMIDE]"
7,5020,Cc1cc(C#N)ccc1-c1ncnc2cc(S(=O)(=O)Nc3nccs3)ccc12 [Example 542]
8,4560,"COc1cc(C(F)(F)F)ccc1-c1nc(=O)[nH]c2cc(S(=O)(=O)Nc3nccs3)ccc12 [Example 543, 4-(2-METHOXY-4-(TRIFLUOROMETHYL)PHENYL)-2-OXO-N-(THIAZOL-2-YL)-1,2-DIHYDROQUINAZOLINE-7-SULFONAMIDE]"
9,709,"COc1cc(C(F)(F)F)ccc1-c1c[nH]c(=O)c2cc(S(=O)(=O)Nc3nccs3)ccc12 [Example 544, 4-(2-METHOXY-4-(TRIFLUOROMETHYL)PHENYL)-1-OXO-N-(THIAZOL-2-YL)-1,2-DIHYDROISOQUINOLINE-7-SULFONAMIDE]"

# Continued, compound first:
row,SMILES,IC50 [nM]
1,"COc1cc(C(F)(F)F)ccc1-c1n[nH]c(=O)c2cc(S(=O)(=O)Nc3ccncn3)ccc12 [Example 506, 1-(2-METHOXY-4-(TRIFLUOROMETHYL)PHENYL)-4-OXO-N-(PYRIMIDIN-4-YL)-3,4-DIHYDROPHTHALAZINE-6-SULFONAMIDE]",3000
2,"COc1cc(Cl)ccc1-c1ncnc2cc(S(=O)(=O)Nc3ccncn3)ccc12 [Example 526, 4-(4-CHLORO-2-METHOXYPHENYL)-N-(PYRIMIDIN-4-YL)QUINAZOLINE-7-SULFONAMIDE]",2300
3,"O=S(=O)(Nc1nccs1)c1ccc2c(-c3ccc(C(F)(F)F)cc3O)ncnc2c1 [Example 533, 4-(2-HYDROXY-4-(TRIFLUOROMETHYL)PHENYL)-N-(THIAZOL-2-YL)QUINAZOLINE-7-SULFONAMIDE]",4090

# Target: T1, Nav 1.7
# Assay: Nav 1.7 IWQ in vitro assay (IonWorks Quattro population patch-clamp)
# Format: cell-based
# Details: 293 cells stably transfected with Nav 1.7; first part of table; read-out: Nav 1.7 IWQ IC50
# Method: Nav 1.7 or Nav 1.5 IWQ In Vitro Assay
# 293 Cells stably transfected with either Nav 1.7 or Nav 1.5 were recorded in population patch-clamp mode with the IonWorks® Quattro automated electrophysiology system in accordance with the manufacturer's specifications (Molecular Devices, LLC, Sunnyvale, Calif.). Sodium channel currents were measured in response to a train of depolarizations that induced successively greater inactivation.
# Cells were then left unclamped for a period of 3 to 8 minutes while a single concentration of test compound was added. Cells were then reclamped and put through the same voltage protocol. Current at the end of the 26th pulse to −20 mV was subtracted from the peak current evoked by the 26th pulse to −20 mV to correct for leak current. Percent block was calculated for each concentration in duplicate, and IC50 curves were fitted to percent block as a function of concentration.
row,IC50 [nM],SMILES
1,340,Cc1ccc(-c2cccc3cc(S(=O)(=O)Nc4ncns4)ccc23)c(Cl)c1 [Example 6]
2,290,COc1cc(C(F)(F)F)ccc1-c1cccc2cc(S(=O)(=O)Nc3nccs3)ccc12 [Example 41]
3,225,COc1cc(Cl)ccc1-c1cccc2cc(S(=O)(=O)Nc3ncco3)ccc12 [Example 45]
4,36,COc1cc(Cl)ccc1-c1cccc2cc(S(=O)(=O)Nc3nccs3)ccc12 [Example 46]
5,60,"O=S(=O)(Nc1ncns1)c1ccc2c(-c3ccc(C(F)(F)F)cc3Cl)nccc2c1 [Example 56, 1-(2-CHLORO-4-(TRIFLUOROMETHYL)PHENYL)-N-(1,2,4-THIADIAZOL-5-YL)ISOQUINOLINE-6-SULFONAMIDE]"
6,600,"O=S(=O)(Nc1ncns1)c1ccc2c(-c3ccc(C(F)(F)F)cc3O)nccc2c1 [Example 58, 1-(2-HYDROXY-4-(TRIFLUOROMETHYL)PHENYL)-N-(1,2,4-THIADIAZOL-5-YL)ISOQUINOLINE-6-SULFONAMIDE]"
7,60,"COc1ccc(-c2nccc3cc(S(=O)(=O)Nc4ncns4)ccc23)c(OC)c1 [Example 59, 1-(2,4-DIMETHOXYPHENYL)-N-(1,2,4-THIADIAZOL-5-YL)ISOQUINOLINE-6-SULFONAMIDE]"
8,1560,"COc1cc(OC)c(-c2nccc3cc(S(=O)(=O)Nc4ncns4)ccc23)c(OC)c1 [Example 60, N-(1,2,4-THIADIAZOL-5-YL)-1-(2,4,6-TRIMETHOXYPHENYL)ISOQUINOLINE-6-SULFONAMIDE]"
9,90,Cc1cc(Cl)ccc1-c1nccc2cc(S(=O)(=O)Nc3ncns3)ccc12 [Example 62]
10,330,"O=S(=O)(Nc1ncns1)c1ccc2c(-c3ccc(Cl)cc3C(F)(F)F)nccc2c1 [Example 63, 1-(4-CHLORO-2-(TRIFLUOROMETHYL)PHENYL)-N-(1,2,4-THIADIAZOL-5-YL)ISOQUINOLINE-6-SULFONAMIDE]"
11,770,"O=S(=O)(Nc1ncns1)c1ccc2c(-c3ccc(Cl)cc3)nccc2c1 [Example 64, 1-(4-CHLOROPHENYL)-N-(1,2,4-THIADIAZOL-5-YL)ISOQUINOLINE-6-SULFONAMIDE]"

# More lines, now with the values behind:
row,SMILES,IC50 [nM]
1,O=S(=O)(Nc1ncns1)c1ccc2c(N3CCOC(c4ccccc4)C3)cccc2c1 (racemic) [Example 14 (mixture of isomers)],300
2,"O=S(=O)(Nc1ncns1)c1ccc2c(N3CCOC(c4ccccc4)C3)cccc2c1 (single isomer, unassigned) [14 (isomer 1), 5-(2-phenylmorpholino)-N-(1,2,4-thiadiazol-5-yl)naphthalene-2-sulfonamide]",520
3,O=S(=O)(Nc1ncns1)c1ccc2c(-c3ccncc3)cccc2c1 [Example 7],7760
4,O=S(=O)(Nc1ncns1)c1ccc2c(N3CCOCC3)cccc2c1 [Example 13],3560
5,CC1(c2ccccc2)CN(c2cccc3cc(S(=O)(=O)Nc4ncns4)ccc23)CCO1 (stereo not shown) [Example 15],1290
6,CC1CN(c2cccc3cc(S(=O)(=O)Nc4ncns4)ccc23)CCO1 (stereo not shown) [Example 16],2370
7,"COC(=O)C1CN(c2cccc3cc(S(=O)(=O)Nc4ncns4)ccc23)CCO1 (stereo not shown) [Example 17, METHYL 4-(6-(N-(1,2,4-THIADIAZOL-5-YL)SULFAMOYL)NAPHTHALEN-1-YL)MORPHOLINE-2-CARBOXYLATE]",4560
8,CCC1CN(c2cccc3cc(S(=O)(=O)Nc4ncns4)ccc23)CCO1 (stereo not shown) [Example 18],710
9,CN(C)C(=O)C1CN(c2cccc3cc(S(=O)(=O)Nc4ncns4)ccc23)CCO1 (stereo not shown) [Example 19],1180
10,CC(C)(O)C1CN(c2cccc3cc(S(=O)(=O)Nc4ncns4)ccc23)CCO1 (stereo not shown) [Example 20],3140
11,O=S(=O)(Nc1ncns1)c1ccc2c(-c3ccc(C(F)(F)F)cc3-c3cn[nH]c3)cccc2c1 [Example 21],20
12,O=S(=O)(Nc1ncns1)c1ccc2c(-c3ccc(Cl)cc3OC(F)F)cccc2c1 [Example 24],30
13,COc1cc(C(F)(F)F)ccc1-c1cccc2cc(S(=O)(=O)Nc3ccncn3)ccc12 [Example 42],50
14,COc1cc(Cl)ccc1-c1cccc2cc(S(=O)(=O)Nc3ccn(CCN(C)C)n3)ccc12 [Example 43],4890
15,O=S(=O)(Nc1ccncn1)c1ccc2c(-c3ccc(C(F)(F)F)cc3C3=CCNCC3)cccc2c1 [Example 48],30
16,O=S(=O)(Nc1ncco1)c1ccc2c(-c3ccc(C(F)(F)F)cc3Cl)cccc2c1 [Example 49],4870
17,"O=S(=O)(Nc1ncns1)c1ccc2c(-c3ccc(C(F)(F)F)c(Cl)c3)nccc2c1 [Example 57, 1-(3-CHLORO-4-(TRIFLUOROMETHYL)PHENYL)-N-(1,2,4-THIADIAZOL-5-YL)ISOQUINOLINE-6-SULFONAMIDE]",220
18,"O=S(=O)(Nc1ccncn1)c1ccc2c(-c3ccc(C(F)(F)F)cc3-c3ccncc3)nccc2c1 [Example 65, 1-(2-(PYRIDIN-4-YL)-4-(TRIFLUOROMETHYL)PHENYL)-N-(PYRIMIDIN-4-YL)ISOQUINOLINE-6-SULFONAMIDE]",320
19,"O=S(=O)(Nc1ccncn1)c1ccc2c(-c3ccc(C(F)(F)F)cc3Br)nccc2c1 [Example 66, 1-(2-BROMO-4-(TRIFLUOROMETHYL)PHENYL)-N-(PYRIMIDIN-4-YL)ISOQUINOLINE-6-SULFONAMIDE]",120
20,"COc1cc(C(F)(F)F)ccc1-c1nccc2cc(S(=O)(=O)Nc3ccncn3)ccc12 [Example 67, 1-(2-METHOXY-4-(TRIFLUOROMETHYL)PHENYL)-N-(PYRIMIDIN-4-YL)ISOQUINOLINE-6-SULFONAMIDE]",80
21,"CN1CC=C(c2cc(C(F)(F)F)ccc2-c2nccc3cc(S(=O)(=O)Nc4ccncn4)ccc23)CC1 [Example 68, 1-(2-(1-METHYL-1,2,3,6-TETRAHYDROPYRIDIN-4-YL)-4-(TRIFLUOROMETHYL)PHENYL)-N-(PYRIMIDIN-4-YL)ISOQUINOLINE-6-SULFONAMIDE]",1520

# Same assay, conditions: read-out: Nav 1.7 IWQ percent inhibition at […]; read-out: Nav 1.7 IWQ percent inhibition at 4.9 μM
row,inhibition at […] [%],SMILES
1,22.1,COc1cc(Cl)ccc1-c1cccc2cc(S(=O)(=O)Nc3cc(C)on3)ccc12 [Example 44]
2,16,"COc1cnccc1NS(=O)(=O)c1ccc2c(-c3ccc(C(F)(F)F)cc3Cl)nccc2c1 [Example 52, 1-(2-CHLORO-4-(TRIFLUOROMETHYL)PHENYL)-N-(3-METHOXYPYRIDIN-4-YL)ISOQUINOLINE-6-SULFONAMIDE]"
